“Also recorded” adds a separate entry of the source.
What was measured:
[1] = system: transferred OT1 CD8 T cells; ovalbumine-expressing B16 melanoma; experiment: Vaccination model with UK5099 as vaccine adjuvant, then B16 melanoma challenge; format: in vivo, mouse; settings: vs DMSO; for control of B16 tumor growth after challenge: 0.5 mg s.c. at d0 and d2, B16 challenge 40 days post-vaccination, tumor growth and weight
Text: One of the main goals of preventive and therapeutic vaccination in the context of pathogen infection and cancer is the establishment of a potent memory CD8 T cell pool. Since it was observed that MPC inhibition during in vitro priming of antigen-specific CD8 T cells increases their memory formation, it was investigated whether the MPCi could be used as a vaccine adjuvant. 10^5 naïve OT1 CD8 T cells were […] in healthy mice and the mice were subsequently vaccinated by a subcutaneous injection of 50 μg CpG and 10 μg SIINFEKL containing additionally 0.5 mg UK5099 or and equal volume of DMSO as control. 48 hours later, the mice received another subcutaneous injection of 0.5 mg UK5099 or and equal volume of DMSO (FIG. 4A). […] It was investigated whether this would render them better prepared for a subsequent antigen challenge, and injected 10^5 ovalbumine-expressing B16 melanoma cells s.c. in the flank of the mice at 40 days post-vaccination (FIG. 4A).
Naïve CD8 T cells were isolated from OT1 spleens (negative selection, Stem Cell Technologies). 1×10^5 T cells were i.v. transferred in WT C57BL/6 mice, followed by a subcutaneous injection of the vaccine, consisting of 10 μg SIINFEKL peptide, 50 μg CpG and 0.5 mg UK5099 or DMSO diluted in a total of 100 μl PBS per mouse. 2 days post-vaccination, mice received a second dose of s.c. 0.5 mg UK5099 or DMSO. After 2 weeks, blood was collected from the tail vein and analyzed by flow cytometry. 40 days post-vaccination, mice were challenged by an s.c. injection of 1×10^5 SIINFEKL-expressing B16 melanoma cells. 17 days later, mice were sacrificed and the tumor was dissected.

[2] = system: adult human CD8 T cells; experiment: Adult human PBMC activation with anti-CD3/CD28 beads, T cell phenotype by flow cytometry; format: cell-based; settings: adult PBMCs, day 9, vs DMSO
Protocol: FIG. 7: MPC inhibition during the activation and culture of adult human T cells induces a memory phenotype. (A) Experimental design. PBMCs were isolated from adult healthy volunteers and activated with anti-CD3/CD28 beads in the presence of DMSO or UK5099 (25 μM). Beads were removed at day 5 and T cell phenotype was analysed at day 9. (B) Percentage of CD8 T cells expressing the memory marker CD62L. (C) The mean fluorescent intensity of CD62L in the respective positive population. (D) Percentage of CD8 T cells expressing markers that allows their identification as stem cell memory T cells (TSCM). (E-F) Mitochonrial mass (identified by MitoGreen staining, E) and mitochondrial membrane potential (TMRM, F), measured by flow cytometry and expressed as fold change as compared to DMSO. (G) Mitochondrial membrane potential normalized for the mitochondrial mass, expressed as the ratio of […], fold change as compared to DMSO. Pooled data from 2 independant experiments. ns: non-significant, *p<0.05, **[…], ***p<0.001. Data represents mean±s.e.m.
Heparinised blood was diluted with PBS and pipetted on top of Ficoll-paque (LymphoPrep). After centrifugation at 1800 rpm for 20 minutes at room temperature, the layer of cells at the intersection, containing the PBMCs was removed, washed and resuspended at 5×10^5 cells/ml of RPMI medium containing 8% human serum (AB serum), antibiotics, 2 mM L-Glutamine, 1% non-essential amino acids, 1 mM sodium pyruvate and 50 μM β-mercaptoethanol (all Gibco). Cells were activated with Human T-activator CD3/CD28 Dynabeads at a 1 bead/cell ratio with 150 IU/ml human recombinant IL2 and DMSO or 25 μM UK5099. Throughout the culture, cells were regularly split when necessary and beads were removed at day 5. At day 9, a fraction of the cells was stained with antibodies for flow cytometry analysis or for mitochondrial analysis.

SMILES: N#CC(=Cc1cn(-c2ccccc2)c2ccccc12)C(=O)O [UK5099, 2-cyano-3-(1-phenyl-1H-indol-3-yl)-2-propenoic acid]
- control of B16 tumor growth after challenge [1]: protects against tumor growth
- control of B16 tumor growth after challenge ([1]; listed as MPCi): much better in controlling the tumor growth
- proportion of transferred OT1 CD8 T cells that formed memory precursor cells ([1]; 0.5 mg s.c. at d0 and d2 with CpG and SIINFEKL, blood 14 days after vaccination): drives a memory phenotype; also recorded: increased proportion
- population of stem cell-like memory T cells (TSCM) ([2]; 25 μM): increased
- population of CD8 T cells positive for CD62L ([2]; UK5099 25 μM): further induce
- mean fluorescent intensity of the CD62L signal in the CD62L-positive cells [2]: increased

From US20230302131A1, “MPC INHIBITION FOR PRODUCING T-CELLS WITH A MEMORY PHENOTYPE” (UNIVERSITÉ DE LAUSANNE, priority 2020, published 2023)
